The text below walks through data of patent US5977144A (priority 1997, dated 1999).

Experiment [1] addresses alpha7 receptor (high affinity alpha-bungarotoxin binding, rat brain membranes) (Rattus norvegicus, UniProt Q05941). The experiment can be described thus: biochemical. The following applies: for IC50: rat brain membranes, read-out: IC50, [125I]α-bungarotoxin binding.
Experiment [2] has as its target T1, alpha4beta2 receptor (cytisine binding, rat brain membranes) (Rattus norvegicus, UniProt P09483+P12390).
T1 construct: from tissue; host or cells: rat brain membranes
As to the kind of experiment: biochemical. The following applies: 1 μM (Table 2); read-out: alpha4beta2 binding: % inhibition of cytistine binding. An excerpt:
Further, the cinnamylidene-anabaseines displaced high affinity cytisine binding to rat brain membranes with lower affinity than other types of benzylidene-anabaseines. These observations are consistent with the cinnamylidene-anabaseines having some selectivity for alpha7 receptor subtypes over other types of nicotinic receptors, especially alpha4beta2 receptors, based on the types of receptors to which alpha-bungarotoxin and cytisine bind to in brain.

Experiment [3] has as its target T2, rat alpha7 receptor (Rattus norvegicus, UniProt Q05941). As to the kind of experiment: cell-based. Particulars: for α7 receptor activation (in words): oocyte expression system; for EC50: oocytes, read-out: α7 EC50. As to the method: FIG. 13A. Effects of chronic injections of DMXB or nicotine on high affinity [^3 H]ACh or [^125 I]α-bungarotoxin (BTX) binding in rat neocortices. Adult male rats were injected with saline vehicle, 1 mg/kg DMXB or 0.2 mg/kg nicotine (NIC) (IP) daily for 2 weeks. At that time, neocortices were removed and assayed for high affinity [^3 H]ACh or [^125 I]α-bungarotoxin binding as described in the text. […] Responses of rat α7 ACHR to 3-CA, 2-MeOCA and 4-MeOCA. Concentration-response relationships for the peak agonist activated currents of oocytes injected with RNA coding for the rat α7 subunit. All responses were initially measured relative to the individual oocyte-response to 500 μM ACh, applied 5 min prior to drug-application. Responses were normalized relative to the maximum response obtainable with ACh so that a response of 1 represents full efficacy. The ratio of 500 μM ACh control response to ACh maximum was taken from Papke et al., 1997.
(§1) Oocytes were prepared and recordings made as described previously (de Fiebre, et al., 1995). Frogs were anesthetized by submersion in 0.1% (3)-aminobenzoic acid ethyl ester and several lobes of the ovary surgically removed through a small incision in the abdomen wall. Oocytes were freed from the follicle cells by treatment with collagenase (in calcium-free Barth's solution: 88 mM NaCl, 1 mM KCl, 15 mM Hepes pH 7.6, 0.33 mM MgSO4, 0.1 mg/ml gentamicin sulfate) for 2 hr at room temperature and Stage 5 oocytes were isolated. Oocytes were rinsed and stored at 18° C. in Barth's saline (88 mM NaCl, 1 mM KCl, 15 mM Hepes pH 7.6, 0.3 mM Ca(NO3)2, 0.41 mM CaCl2, 0.82 mM MgSO4, 0.1 mg/ml gentamicin sulfate) before and after microinjection with RNA. Microinjection was conducted with a Drummond Scientific "Nanoject Variable" automatic injector. Oocytes were injected with a 50 nl solution of specified rat nicotinic subunit mRNA species (2-10 mg/ml; derived from the cDNA containing HIP 306 plasmid kindly provided by Dr. Jim Boulter, Salk Institute) and incubated 2-7 days at 18° C. before electrophysiological recording. electrophysiological recordings, oocytes were perfused in a Warner Instruments RC-8 recording chamber with a perfusion solution containing 115 mM NaCl, 2.5 mM KCl, 10 mM Hepes pH 7.2, 1.8 mM CaCl2 and 1 μM atropine to block muscarinic responses. Perfusion was continuous at a rate of 10 ml/min. Drags were diluted in perfusion solution and applied using a solenoid valve to switch from perfusion to drug solutions. Current responses to drug administration were studied under two electrode voltage clamp at a holding potential of -70 mV using a Dagan Corp. TEV-200 voltage clamp connected to a 386-SX IBM computer using a TL-1 DMA interface (Axon Instruments). Micropipettes were filled with 3 M KCl and had resistances of 0.5-2 MOhms. Drug responses are analyzed with PClamp software (Axon Instruments). Oocytes with resting potentials of less than -30 mV were rejected.

Experiment [4] addresses T3, rat alpha4beta2 receptor (Rattus norvegicus, UniProt P09483+P12390). The experiment can be described thus: Activation of alpha4beta2 receptors expressed in Xenopus oocytes. In kind it is cell-based. Particulars: Table 4; read-out: Oocytes Agonist α4. As to the method: FIG. 14A. Responses of α4β2 ACHR to 3-CA, 2-MeOCA or 4-MeOCA. Concentration-response relationships for the peak agonist activated currents of oocytes injected with RNA coding for rat α4β2 subunits. Responses are first expressed relative to the response to 10 μM ACh, applied 5 min before drug-application, then normalized to the maximum response obtainable with ACh so that a response of 1 represents full efficacy. The ratio between 10 μM ACh and maximum ACh response was determined in separate experiments.
as §1

Experiment [5] has as its target T2, rat alpha7 receptor. The experiment can be described thus: cell-based. Also noted: Oocytes Antagonist: unit not given here. Particulars: for IC50: ACh applied 5 min after compound, read-out: IC50, antagonism subsequent to agonist activity; for Oocytes Antagonist: Table 4; for alpha 7 antagonism: % of antagonism of acetylcholine administered after drug: xenopus oocytes. How it is done: FIG. 13B. Effects of chronic injections of DMXB or nicotine on high affinity [^3 H]ACh or [^125 I]α-bungarotoxin (BTX) binding in rat neocortices. Adult male rats were injected with saline vehicle, 1 mg/kg DMXB or 0.2 mg/kg nicotine (NIC) (IP) daily for 2 weeks. At that time, neocortices were removed and assayed for high affinity [^3 H]ACh or [^125 I]α-bungarotoxin binding as described in the text. […] Responses of rat α7 AChR to 3-CA, 2-MeOCA and 4-MeOCA. […] All responses are expressed relative to the oocyte-response to 500 μM ACh applied 5 min prior to the experimental agonist application.
as §1
(§2) Antagonist properties subsequent to agonist activity were measured as a decrease in responsiveness to ACh applied 5 min after compound-application, normalized to ACh application instead of the anabaseine-derivative (FIG. 13A AND FIG. 13B).

Experiment [6] has as its target T3, rat alpha4beta2 receptor. The experiment can be described thus: Antagonism of alpha4beta2 receptors in oocytes (residual inhibition of ACh response after drug). Particulars: xenopus oocytes. It is filed as cell-based. As to the method: as §1, with “Micropipettes were filled with 3 M KCl and had resistances of 0.5-2 MOhms.” left out, “Oocytes with resting potentials of less than -30 mV were rejected.” left out
as §2

Experiment [7] deals with PC12 cells. In kind it is cell-based. Particulars: for neurite protection during NGF-deprivation (in words): 10 μM; for Neurite Counts: 10 μM (NGF 100 ng/ml), 4 days after removal of serum and NGF, mean±SEM, * p<0.05. As to the method:
PC12 cell-culture methods were modified from Greene and Tischler (1976). Cells were plated at 30-40% confluence and grown in Dulbecco's Modified Eagle Medium containing 10% heat-inactivated horse serum, 5% fetal bovine serum, 100 units/ml penicillin, 100 μg/ml streptomycin and 0.5 mM 1-glutamine. Cultures were maintained at 37° C., […] /6% CO2 and 90-92% humidity in culture plates pre-coated with poly-1lysine (10 g/L). Cultures were maintained for 7 days in serum-supplemented medium to which 100 ng/ml rat 2.5S NGF was added at day 1. On day 7, conditioned medium was replaced serum-free medium containing specified drugs. Four days later, cell density was estimated using the NIH Image program version 1.47 and number of neurite-expressing cells counted manually in blind fashion as described previously (Martin et al., 1994). A Nikon inverted microscope (100× magnification) was attached to a Mac II computer via a monochrome video camera (Cohu, Inc., San Diego, Calif.). Four random areas were counted per plate and there were 4 plates per treatment group, unless otherwise indicated. Neurites were defined as processes at least 2× the length of the perikaryon. To assess the reliability of the image analyses, a reticle was used for direct quantification of cells in the same view as the one analyzed in random samples.
PC12 cells were differentiated for 1 week with NGF. Drugs were administered for the 4 day interval after removal of serum and NGF. Neuites were counted and expressed as the mean±SEM of at least 3 plates/group.

Experiment [8] deals with T3, rat alpha4beta2 receptor. The experiment can be described thus: Activation of alpha4beta2 receptors expressed in Xenopus oocytes. In kind it is cell-based. Particulars: read-out: alpha4beta2 activation: % response observed with 10 μM acetylcholine.
The subject of experiment [9] is PC12 cells. In kind it is cell-based. The following applies: Table 4.
Experiment [10] addresses T2, rat alpha7 receptor. The following applies: cited from earlier work.
Experiment [11] concerns the target T2, rat alpha7 receptor. Particulars: literature; cited from earlier work.
The test system of experiment [12] is animal models of learning and memory. The following applies: animals; cited from earlier work.
Experiment [13] has as its system alpha7 nicotinic receptors.
Experiment [14] concerns cholinesterase-staining cells in the nucleus basalis. The following applies: rat, in vivo.
Protocol: Passive avoidance behavior was measured in nucleus basalis lesioned rats after intraperitoneal (IP) injections of drugs (base weight) or 0.9% saline diluent. For lesions, male 5 month old Sprague Dawley rats were anesthetized with 30 mg/kg sodium pentobarbital (IP) and then infused bilaterally with 1 μl of 5 μg/μl ibotenic acid in phosphate buffered saline, pH 7.4, into the nucleus basalis as described previously (17). Infusion coordinates were anterior 7.0 mm, lateral 2.6 mm and vertical 6.5 mm according to Paxinos and Watson (Paxinos and Watson, 1986).
Histological assessments of the ibotenic acid placements in the nucleus basalis were made after behavioral measurements, using cholinesterase staining in formalin-fixed tissues.
[15] abbreviates: 1 μM (Table 2), read-out: alpha7 binding: % inhibition of alphabungarotoxin binding.
[16] abbreviates: Table 4, read-out: Receptor Binding α7.
[17] abbreviates: Table 4, read-out: Oocytes Agonist α7.
Where [18] appears, read: read-out: alpha7 activation: % response observed with 500 μM acetylcholine.

“Also recorded” adds a separate entry of the source. Read-outs that look alike come from different tables or passages of the source.

T2 sequence (Q05941 23-502): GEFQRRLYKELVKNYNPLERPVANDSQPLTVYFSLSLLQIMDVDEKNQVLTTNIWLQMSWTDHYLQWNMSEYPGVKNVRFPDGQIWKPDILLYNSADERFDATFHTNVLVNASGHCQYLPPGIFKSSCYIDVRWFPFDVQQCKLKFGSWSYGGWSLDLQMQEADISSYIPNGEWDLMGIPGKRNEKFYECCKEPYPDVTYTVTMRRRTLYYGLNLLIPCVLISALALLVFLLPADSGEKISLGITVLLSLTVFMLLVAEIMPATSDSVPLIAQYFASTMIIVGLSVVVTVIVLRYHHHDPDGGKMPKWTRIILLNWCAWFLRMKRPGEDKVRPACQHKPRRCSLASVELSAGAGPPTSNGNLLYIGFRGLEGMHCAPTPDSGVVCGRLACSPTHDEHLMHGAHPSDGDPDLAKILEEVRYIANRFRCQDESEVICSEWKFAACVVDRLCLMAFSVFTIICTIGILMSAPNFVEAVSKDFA
alpha7 receptor (high affinity alpha-bungarotoxin binding, rat brain membranes), sequence (Q05941 23-502): as above
T3 sequence (P09483 31-630): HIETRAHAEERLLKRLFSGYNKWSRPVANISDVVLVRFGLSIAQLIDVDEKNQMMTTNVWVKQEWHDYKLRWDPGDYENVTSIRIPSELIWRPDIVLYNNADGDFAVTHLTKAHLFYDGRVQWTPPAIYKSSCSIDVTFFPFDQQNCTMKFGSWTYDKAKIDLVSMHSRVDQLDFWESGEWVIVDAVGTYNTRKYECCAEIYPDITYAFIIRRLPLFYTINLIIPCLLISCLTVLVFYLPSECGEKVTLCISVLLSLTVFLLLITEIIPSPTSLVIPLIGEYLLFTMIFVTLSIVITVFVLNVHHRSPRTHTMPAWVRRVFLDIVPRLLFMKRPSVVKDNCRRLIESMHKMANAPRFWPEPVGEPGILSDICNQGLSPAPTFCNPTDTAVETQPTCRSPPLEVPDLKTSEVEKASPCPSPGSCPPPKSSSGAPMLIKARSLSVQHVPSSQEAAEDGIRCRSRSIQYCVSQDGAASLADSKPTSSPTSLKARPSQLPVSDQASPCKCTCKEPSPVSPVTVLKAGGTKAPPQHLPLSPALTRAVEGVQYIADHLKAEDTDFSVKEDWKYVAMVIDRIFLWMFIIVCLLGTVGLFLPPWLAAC
T3 sequence (P12390 25-500): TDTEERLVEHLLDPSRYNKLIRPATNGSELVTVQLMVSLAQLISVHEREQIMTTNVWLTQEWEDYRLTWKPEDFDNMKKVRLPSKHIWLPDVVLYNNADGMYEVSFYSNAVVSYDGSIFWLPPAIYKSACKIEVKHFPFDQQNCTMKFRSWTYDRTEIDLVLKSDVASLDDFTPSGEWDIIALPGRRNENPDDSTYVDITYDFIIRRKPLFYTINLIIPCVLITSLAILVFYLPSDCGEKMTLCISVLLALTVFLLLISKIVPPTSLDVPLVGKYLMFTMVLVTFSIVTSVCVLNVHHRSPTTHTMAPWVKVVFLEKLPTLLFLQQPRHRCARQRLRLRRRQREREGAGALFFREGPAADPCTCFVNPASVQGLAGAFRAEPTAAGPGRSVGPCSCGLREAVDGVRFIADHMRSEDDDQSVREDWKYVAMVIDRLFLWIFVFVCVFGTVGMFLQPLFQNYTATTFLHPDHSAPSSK
T1 sequence (P09483 31-630): as the sequence (P09483 31-630) above
T1 sequence (P12390 25-500): as the sequence (P12390 25-500) above

A word on the IC50: it is the concentration that gives 50% inhibition. One may read the EC50 as the concentration at which the effect is half-maximal. For the molecule `C(=C\c1ccccc1)/C=C1\CCCN=C1c1cccnc1` [3-CA, E,E-3-(Cinnamylidene)anabaseine], the inhibition at 1 µM in experiment [1] (setting [15]) came to 94.7%; in [1] (setting [16]), 94.7%; in experiment [2] it was 6.2%. Moreover, the IC50 was found to be 0.08 µM in experiment [1] and 15 ± 6 µM on rat alpha7 receptor [5]. The “selectivity α7 over α4β2 (in words)” value at rat alpha7 receptor [3] is recorded as “selectively activate α7 receptors over α4β2”. Moreover, the Emax on rat alpha7 receptor [3] (setting [17]) was 92%; at rat alpha7 receptor [3] (setting [18]), 92%; on rat alpha4beta2 receptor [4], 2.6%; at rat alpha4beta2 receptor [8], below 3%. At rat alpha7 receptor [3], the “α7 receptor activation (in words)” value is on record as “fully efficaciously”. Further, the half-maximal effective concentration (EC50) at rat alpha7 receptor [3] was 3.2 ± 0.7 µM. For the same molecule, the “inhibition of α7 receptors, estimated” value on rat alpha7 receptor [5] (10 μM, estimated from oocyte results) is reported as “less than 20%”. The inhibition at 10 µM at rat alpha7 receptor [5] (10 μM, ACh application 5 min later, read-out: long term inhibition of α7 receptors) was below 20%. Besides, the “Oocytes Antagonist” value at rat alpha7 receptor [5] was “.50”. In addition, the “alpha 7 antagonism: % of antagonism of acetylcholine administered after drug” value at rat alpha7 receptor [5] was 45. Also, at rat alpha4beta2 receptor [6], the “alpha4beta2 antagonism: % of antagonism of acetylcholine administered after drug” value is on record as 10. Further, the “neurite protection during NGF-deprivation (in words)” value in the experiment with PC12 cells [7] is listed as “neuroprotective against neurite-loss during NGF-deprivation; also recorded: protected against NGF-deprivation neurite loss; also recorded: exhibited cytoprotective activity; also recorded: effective”. In the experiment with PC12 cells [7], the “Neurite Counts” value stood at 185 ± 19. Further, the “PC12 Cyto.” value in the experiment on PC12 cells [9] is listed as “+?”.
On to `COc1ccc(/C=C/C=C2\CCCN=C2c2cccnc2)cc1` [4-MeOCA, E,E-3-(4-Methoxycinnamylidene)anabaseine], for which the inhibition at 1 µM in [1] (setting [15]) came to 94.1%. The inhibition at 1 µM in experiment [1] (setting [16]) is 94.1%. Besides, the IC50 in experiment [1] turned out to be 0.054 µM. Also, in experiment [2], the inhibition at 1 µM was 32%. At rat alpha7 receptor [3], the “selectivity α7 over α4β2 (in words)” value was “selectively activate α7 receptors over α4β2”, the “times less potent (α7 activation)” value was 2-3 times, the “α7 receptor activation (in words)” value is on record as “fully efficaciously” and the EC50 came to 15.9 ± 7.9 µM. In addition, on rat alpha7 receptor [3] (setting [17]), the Emax stood at 45%. Further, the Emax at rat alpha7 receptor [3] (setting [18]) was 45%. In addition, the Emax at rat alpha4beta2 receptor [4] was below 5%. Also, at rat alpha7 receptor [5], the IC50 turned out to be 5 ± 2.3 µM, the “Oocytes Antagonist” value was “.104” and the “alpha 7 antagonism: % of antagonism of acetylcholine administered after drug” value was found to be 75. For the same molecule, the “alpha4beta2 antagonism: % of antagonism of acetylcholine administered after drug” value on rat alpha4beta2 receptor [6] is 34. Besides, in the experiment on PC12 cells [7], the “neurite protection during NGF-deprivation (in words)” value was “Neither 2-MeOCA nor 4-MeOCA elicited neurite-protection” and the “Neurite Counts” value was found to be 155 ± 23. In addition, at rat alpha4beta2 receptor [8], the Emax was below 2%.
As for `CN(C)c1ccc(/C=C/C=C2\CCCN=C2c2cccnc2)cc1` [DMAC, E,E-3-(4-dimethylaminocinnamylidene) anabaseine], the “α7 agonist activity (in words)” value on rat alpha7 receptor [10] (background/literature) is “fully efficacious and potent α7 agonist”. Also, the “selectivity α7 over α4β2 / other nicotinic subtypes (in words)” value on rat alpha7 receptor [10] (literature) was “selectively activate α7 receptors over α4β2”. In addition, the “long term inhibition / antagonism of α7 receptors (in words)” value on rat alpha7 receptor [11] is on record as “long term inhibition of α7 receptors following activation; also recorded: potent antagonist activity”. Also, the “memory-related performance (in words)” value in [12] is recorded as “memory-enhancing activity in rodents; also recorded: effective in this behavioral paradigm”.
Regarding `CCO` [ethanol], in experiment [13], the “antagonism of nicotinic receptors by ethanol (in words)” value is recorded as “alpha7 nicotinic receptors were sensitive to antagonism by ethanol while other receptor types were not affected”.
Regarding `N[C@H](C(=O)O)c1cc(=O)[nH]o1` [ibotenic acid], in experiment [14], the “reduction of cholinesterase-staining cells in nucleus basalis” value is listed as “over 80%”.
